# What was measured:
# human D2S receptor = biological target: T1, human D2S receptor (Homo sapiens, UniProt P14416); test: Competition radioligand binding at human D2 receptor ([3H]-Spiperone, CHO-K1 membranes); details: mean ± SEM of 2–3 independent experiments in duplicate; read-out: huD2 Ki
# T1 construct: expressed in transfected cells; host or cells: CHO-K1
# Description: Experiments were carried out in membranes isolated from a CHO-K1 cell line stably overexpressing the cloned human D2S receptor.
# (§1) Competition radioligand binding assays were performed on membranes isolated from cell lines stably expressing the cloned human receptors, which were either in-house or commercially available. […] Assays (250 μL assay final volume) were carried out in 96-well polypropylene plates in duplicate. In short, the suspension of appropriate membrane protein was incubated in an assay buffer with the addition of the corresponding radioligand, in the presence or absence of a tested compound or reference compound. […] After the incubation, the content of the test plates was transferred to 96 well plates with glass fiber filter GF/B or GF/C, previously pretreated with polyethyleneimine (PEI), and rapidly filtered with the use of vacuum, followed by rapid washing with cold (4 °C) wash buffer. After that, the filter plates were dried at 60 °C for 1 h. Then, 30 μL of liquid scintillation cocktail (UniverSol-ES, MP Biomedicals, Solon, OH, USA) was added to each well of the filter plates, and the radioactivity was measured in a MicroBeta^2 microplate scintillation counter (PerkinElmer, Madrid, Spain).
# (§2) Competition binding curves were fitted to a one-site competition binding model (Fit Ki) with the use of Prism 7 software (GraphPad, San Diego, CA, USA). logKi (log of the equilibrium dissociation constant (Ki)) values were obtained after constraining the concentration of radioligand employed in the assay and its dissociation constant (KD) as determined in saturation radioligand binding assays.
# mice = test: Forced swim test (FST); type: in vivo; details: 60 min before the test
# Description: The experiments were carried out on 6 weeks old naive Swiss male mice (Experimental Medicine Center (OMD), Lublin, Poland), weighing 28–30 g. The cages with mice were located in air-conditioned rooms maintaining the ambient temperature within the range of 23–25 °C. The animals were provided with a natural 12 h day/night cycle, replicating the day and night mode. Each testing group was represented by 8–10 animals, depending on the research schedule. All experiments were conducted according to the National Institute of Health Guidelines for the Care and Use of Laboratory Animals (8th edition) and to the European Community Council Directive for the Care and Use of Laboratory Animals of 22 September 2010 (2010/63/EU) and were approved by the Local Ethical Committee (number of ethical approval: 147/2018). Compound 17 (25, 50, 75 mg/kg) was suspended in 1% Tween 80 in saline solution and was administered intraperitoneally (i.p.) 60 min before the test. […] Imipramine hydrochloride (30 mg/kg, Sigma-Aldrich was administered intraperitoneally (i.p.) 60 min before the test. […] Sigma-Aldrich, USA) was given subcutaneously (s.c.). Prior to administration, the agent was dissolved in saline and injected 30 min before the test. Control animals received an (i.p.) or (s.c.) injection of a respective vehicle. All compounds were injected in a manner generally accepted in experimental pharmacology, in an amount of 10 mL/kg body weight. Forced Swim Test was carried out according to the method of Porsolt et al.. It is a standard behavioral test, called the resignation test, which is used to determine the effectiveness of antidepressant drugs in laboratory rodents. Each mouse was placed individually for 6 min into a glass cylinder (height 25 cm, diameter 10 cm) with 15 cm of water at 23–25 °C. After the first 2 min of the test, the total duration of immobility (in seconds) was measured. An animal was judged to be immobile when it ceased struggling and remained floating motionless and making only movements allowing it to keep the head just above the surface of the water.
# human 5-HT7 receptor = biological target: T2, human 5-HT7 receptor (Homo sapiens, UniProt P34969); test: Competition radioligand binding at human 5-HT7 receptor ([3H]-SB269970); details: mean ± SEM of 2 independent experiments, read-out: hu5-HT7 % inh. at 10 µM
# T2 construct: expressed in transfected cells; host or cells: HEK293
# Description: as §1, §2
# T1 sequence (P14416 1-414 isoform P14416-2): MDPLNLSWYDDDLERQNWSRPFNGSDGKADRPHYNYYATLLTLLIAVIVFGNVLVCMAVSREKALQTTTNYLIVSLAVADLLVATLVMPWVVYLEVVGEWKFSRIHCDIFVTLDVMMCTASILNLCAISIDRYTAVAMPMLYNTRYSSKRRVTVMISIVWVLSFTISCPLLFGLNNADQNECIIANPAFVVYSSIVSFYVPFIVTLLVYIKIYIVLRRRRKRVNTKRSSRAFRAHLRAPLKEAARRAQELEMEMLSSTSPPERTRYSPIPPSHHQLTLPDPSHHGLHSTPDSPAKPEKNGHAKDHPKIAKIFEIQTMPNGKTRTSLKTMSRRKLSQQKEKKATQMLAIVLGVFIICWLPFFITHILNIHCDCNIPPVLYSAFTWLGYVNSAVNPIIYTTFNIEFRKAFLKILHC
# T2 sequence (P34969 whole entry): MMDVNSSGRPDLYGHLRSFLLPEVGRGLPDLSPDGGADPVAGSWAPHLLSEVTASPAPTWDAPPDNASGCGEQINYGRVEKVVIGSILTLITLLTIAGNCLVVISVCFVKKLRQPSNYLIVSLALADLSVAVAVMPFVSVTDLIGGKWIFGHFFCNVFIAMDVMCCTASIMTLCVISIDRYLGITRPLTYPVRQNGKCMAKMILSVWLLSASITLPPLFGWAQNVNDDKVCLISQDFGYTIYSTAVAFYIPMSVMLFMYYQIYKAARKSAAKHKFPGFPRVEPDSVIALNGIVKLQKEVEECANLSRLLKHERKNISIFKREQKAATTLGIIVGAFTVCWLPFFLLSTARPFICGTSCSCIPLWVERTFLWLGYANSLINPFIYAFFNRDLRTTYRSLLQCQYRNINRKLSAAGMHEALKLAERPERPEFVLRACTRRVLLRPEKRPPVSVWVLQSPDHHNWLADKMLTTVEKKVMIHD
structure (smiles),measurement,setting,value
"O=C(CCN1C(=O)CSc2ccccc21)Nc1ccc(Cl)cc1 [Compound 17, N-(4-Chlorophenyl)-3-(3-oxo-2,3-dihydro-4H-benzo[b][1,4]thiazin-4-yl)propanamide]",Ki,human D2S receptor,381 ± 48 nM
same,effect on immobility time,"mice; 25 mg/kg i.p., p > 0.05",no statistically significant effect
same,effect on total time of immobility vs control group,"mice; 50 mg/kg i.p., p < 0.001",significantly reduced
same,effect on total time of immobility vs control group,"mice; 75 mg/kg i.p., p < 0.01",significantly reduced
same,inhibition at 10 µM,human 5-HT7 receptor,5 ± 11%

# From publication PMC10223470 (Molecules, 2023)
